From paper PMC11645267, “Novel pharmacologic inhibition of lysine-specific demethylase 1 as a potential therapeutic for glioblastoma” (Cancer Gene Therapy, 2024)

Columns and labels:
F3 = assay: Stemness marker expression (qPCR, western blot); type: cell-based; conditions: F3, 5 μM, 96 h
From the text: (§1) Super-enhancers consist of enhancer clusters with abundant binding of transcription factors and are highly enriched with H3K27ac marks. The H3K4me2 increased regions included the MYC locus and H3K4me2 de novo regions comprised Nestin and SOX2 loci (Fig. 2F, Supplementary Fig. S5A). These regions were also identified as super-enhancers in GSCs using data from our previous study (Fig. 2F). Compared to the large increase in H3K4me2 in these regions, changes in H3K4me3 were subtle after S2172 treatment (only 2582 regions were acquired modification) (Fig. 2C). Increasing the me2/me3 ratio at H3K4 is associated with reduced gene expression. […]
(§2) instructions. For GSC cells, the CellTiter-Glo 3D Viability Assay (Promega, Madison, WI, USA) was used to measure the living cells. All proliferation experiments were repeated […]
A. Left panel: Western blot analysis of H3K4me1, H3K4me2, H3K4me3, and H3K9me2 after treatment with either DMSO or S2172 5μM for 96 h in normal neural stem cell F3 . […] Right panel: Quantification of signal intensities of the Western blot. […]
C. […] Right panel: Quantification of band signal intensities from the Western blot.
Error bars indicate the SD; n = 3. […] The ratio was calculated by dividing the intensity of the cleaved PARP band by the full-length PARP band. […]

KINGS1 = assay: Stemness marker expression (qPCR, western blot); type: cell-based; conditions: KINGS1, 5 μM, 96 h
From the text: as §1, §2
Total RNA from the cell lines was extracted using TRIzol (Thermo Fisher Scientific), followed by reverse-transcription using Prime Script RT Master Mix (Takara, Kusatsu, Japan). […]
B. Western blot analysis of LSD1,MYC, Nestin, SOX2,and ACTB in same cells as shown in panel A. ACTB was used as a loading control. […] Quantification of signal intensities of the Western blot (right panel). […] Right panel: Quantification of band signal intensities from the Western blot. […] The ratio was calculated by dividing the cleaved PARP band intensity by the full-length PARP band intensity. […]

NC1CCC(NC2CC2c2cc(F)cc(F)c2OCc2ccccc2)CC1 (centres unmarked) [S2172]
expression levels of stemness markers (F3): not significantly affected | stemness marker expression at mRNA and protein levels (KINGS1): did not show significant changes
